{"source": "patent US20100029479A1", "about": "“PESTICIDAL COMBINATIONS” (SYNGENTA CROP PROTECTION, INC., priority 2006, published 2010)", "key": {"Tilletia caries": {"tested_on": "Tilletia caries", "assay": "Tilletia caries, number of ears infected (seed treatment, field plots)", "assay_type": "in vivo", "settings": "Winter wheat/caphorn, Antraquinone 50, combination 50 + 2 + 5 + 3 gai/100 kg seed"}, "Ustilago": {"tested_on": "Ustilago", "assay": "Ustilago, % pest incidence (seed treatment, field plots)", "assay_type": "in vivo", "settings": "Antraquinone 50, combination 50 + 2 + 5 + 3 gai/100 kg seed"}}, "data": [{"smiles": "O=C1c2ccccc2C(=O)c2ccccc21", "note": "[Antraquinone]", "values": [{"measurement": "Number of Ears Infected", "setting": "Tilletia caries; Trial 1, plot 15 m^2, 253 DAP", "result": "14.3 (a)"}, {"measurement": "Number of Ears Infected", "setting": "Tilletia caries; Trial 2, plot 14.25 m^2, 220 DAP", "result": "232.3 (a)"}, {"measurement": "Number of Ears Infected", "setting": "Tilletia caries; Trial 3, plot 15 m^2, 212 DAP", "result": "84.3 (a)"}, {"measurement": "Number of Ears Infected", "setting": "Tilletia caries; Trial 4, plot 12 m^2, 192 DAP", "result": "56 (a)"}, {"measurement": "% Pest Incidence", "setting": "Ustilago; Trial 1, Winter barley var LL09OH05, plot 15 m^2, 210 DAP", "result": "18.1 (a) %"}, {"measurement": "% Pest Incidence", "setting": "Ustilago; Trial 2, Winter barley var LL05OH05, plot 14.4 m^2, 205 DAP", "result": "5.6 (a) %"}, {"measurement": "% Pest Incidence", "setting": "Ustilago; Trial 3, Winter barley, plot 14.4 m^2, 161 DAP", "result": "22.2 (a) %"}]}]}
